Assay results taken from patent US20090062189A1, “TUMOR SUPPRESSOR PROTEIN AND NUCLEOTIDE ENCODING SAME” (priority 2006, published 2009).

T1: PDZ domain-containing protein 2 (PDZD2), full-length, human (human) (UniProt O15018)
T1 sequence: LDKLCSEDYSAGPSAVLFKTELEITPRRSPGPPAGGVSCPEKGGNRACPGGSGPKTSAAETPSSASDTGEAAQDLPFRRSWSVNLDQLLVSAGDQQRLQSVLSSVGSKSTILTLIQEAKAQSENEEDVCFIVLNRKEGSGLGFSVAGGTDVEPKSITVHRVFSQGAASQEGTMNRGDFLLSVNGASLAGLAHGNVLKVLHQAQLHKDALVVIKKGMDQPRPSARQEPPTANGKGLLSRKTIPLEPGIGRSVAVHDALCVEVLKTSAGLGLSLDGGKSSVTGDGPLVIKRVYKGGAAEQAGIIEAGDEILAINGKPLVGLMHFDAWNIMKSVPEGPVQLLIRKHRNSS


Key:
[1] = system: PC-3 cells; test: Immunoblotting of PDZD2 in cell lysates and sPDZD2 in conditioned media with anti-PDZD2 antibody; type: cell-based, human; details: 10 μM Z-DEVD-FMK, 48 hours, compared to Z-FA-FMK-treated cells
From the text: (§1) Given that cleavage of pro-IL-16 to form the corresponding secretory IL-16 cytokine is mediated by caspase-3, we tested whether or not proteolytic cleavage of full-length PDZD2 to its secreted protein sPDZD2 is caspase-3-dependent in human prostate, breast and liver cancer cells. Human prostate cancer cell lines LNCaP.FGC (CRL-1740), DUI45 (HTB-81), PC-3 (CRL-1435), and 22Rv1 (CRL-2505), breast adenocarcinoma cell line MCF-7 (HTB-22), and hepatocellular carcinoma cell line Hep-G2 (HB-8065) were obtained from American Type Culture Collection. […] Cell lysates in sample buffer (0.2% SDS, 10% glycerol, 0.06 M Tris-HCl (pH 6.8), 100 mM DTT, and 0.01% bromophenol blue) were heated at 95° C. for 5 min. Proteins in the conditioned media were concentrated by 50-fold using YM-10 Centricons (Millipore). Samples (10 μg) were resolved by SDS-PAGE and electroblotted to PVDF membranes (Millipore). The blots were blocked with 5% non-fat milk powder in TBS-T for 1 hour at room temperature and then incubated with rabbit anti-PDZD2 antibody (1: 10,000 dilution) overnight at 4° C. After washing with TBS-T, the blots were incubated with secondary antibodies against rabbit immunoglobulin G (ZYMED Laboratories). Blots were stripped in 25 mM glycine buffer (pH 2.0) for 30 min for re-probing with α-tubulin (1:500 dilution, Santa Cruz Biotechnology). The signals were visualized by enhanced chemiluminescence Western blotting system (Amersham Biosciences) and densitometric scannings of films of the developed blot normalized against α-tubulin were determined.

[2] = system: 22Rv1 cells; test: as above; type: cell-based, human; details: 10 μM Z-DEVD-FMK, 48 hours, compared to Z-FA-FMK-treated cells
From the text: as §1

[3] = system: MCF-7 cells; test: as above; type: cell-based, human; details: 10 μM Z-DEVD-FMK, 48 hours, compared to Z-FA-FMK-treated cells
From the text: as §1

[4] = system: DU145 cells; test: as above; type: cell-based, human; details: 10 μM Z-DEVD-FMK, 48 hours, compared to Z-FA-FMK-treated cells
From the text: as §1

[5] = system: Hep-G2 cells; test: as above; type: cell-based, human; details: 10 μM Z-DEVD-FMK, 48 hours, compared to Z-FA-FMK-treated cells
From the text: as §1

[6] = molecular target: T1, PDZ domain-containing protein 2 (PDZD2), full-length, human (human); test: cell-based or functional assay

increase of full-length PDZD2 in cell lysate, 22Rv1 cells, 10 µM Z-DEVD-FMK 48 h vs Z-FA-FMK [6] [fold] | increase of full-length PDZD2 in cell lysate, DU145 cells, 10 µM Z-DEVD-FMK 48 h vs Z-FA-FMK [6] [fold] | increase of full-length PDZD2 in cell lysate, Hep-G2 cells, 10 µM Z-DEVD-FMK 48 h vs Z-FA-FMK [6] [fold] | increase of full-length PDZD2 in cell lysate, MCF-7 cells, 10 µM Z-DEVD-FMK 48 h vs Z-FA-FMK [6] [fold] | increase of full-length PDZD2 in cell lysate, PC-3 cells, 10 µM Z-DEVD-FMK 48 h vs Z-FA-FMK [6] [fold] | reduction of sPDZD2 secretion into conditioned medium, 22Rv1 cells, 10 µM Z-DEVD-FMK 48 h vs Z-FA-FMK [6] [%] | reduction of sPDZD2 secretion into conditioned medium, DU145 cells, 10 µM Z-DEVD-FMK 48 h vs Z-FA-FMK [6] [%] | reduction of sPDZD2 secretion into conditioned medium, Hep-G2 cells, 10 µM Z-DEVD-FMK 48 h vs Z-FA-FMK [6] [%] | reduction of sPDZD2 secretion into conditioned medium, MCF-7 cells, 10 µM Z-DEVD-FMK 48 h vs Z-FA-FMK [6] [%] | reduction of sPDZD2 secretion into conditioned medium, PC-3 cells, 10 µM Z-DEVD-FMK 48 h vs Z-FA-FMK [6] [%] | Molecule | increase of PDZD2 expression [1] [fold] | reduction of sPDZD2 secretion into conditioned media ([1]; serum-free) [%] | increase of PDZD2 expression [2] [fold] | reduction of sPDZD2 secretion into conditioned media ([2]; serum-free) [%] | increase of PDZD2 expression [3] [fold] | reduction of sPDZD2 secretion into conditioned media ([3]; serum-free) [%] | increase of PDZD2 expression [4] [fold] | reduction of sPDZD2 secretion into conditioned media ([4]; serum-free) [%] | increase of PDZD2 expression [5] [fold] | reduction of sPDZD2 secretion into conditioned media ([5]; serum-free) [%]
 |  |  |  |  |  |  |  |  |  | Z-DEVD-FMK | 2 | 28 | 4.4 | 44 | 3.5 | 57 | 3 | 40 | 4.1 | 52
4.4 | 3 | 4.1 | 3.5 | 2 | 44 | 40 | 52 | 57 | 28 | caspase-3 (enzyme, human, UniProt P42574 29-277, looked up) SGISLDNSYKMDYPEMGLCIIINNKNFHKSTGMTSRSGTDVDAANLRETFRNLKYEVRNKNDLTREEIVELMRDVSKEDHSKRSSFVCVLLSHGEEGIIFGTNGPVDLKKITNFFRGDRCRSLTGKPKLFIIQACRGTELDCGIETDSGVDDDMACHKIPVEADFLYAYSTAPGYYSWRNSKDGSWFIQSLCAMLKQYADKLEFMHILTRVNRKVATEFESFSFDATFHAKKQIPCIVSMLTKELYFYH |  |  |  |  |  |  |  |  |  | 
